# Source: PMC3561163 (PLoS Neglected Tropical Diseases, 2013)
# Marks after values point to notes of the source that are not given here.
# Columns and labels:
# [1] = tested on: 14 different HLA class II molecules; format: binding, human
# [2] = tested on: PBMCs from YF-17DD vaccinees; format: cell-based, human
# [3] = tested on: CD4^+ depleted PBMCs from YF-17DD vaccinees; format: cell-based, human
# [4] = tested on: CD8^+ T-cells isolated from HLA-A*0201 positive individuals; format: cell-based, human
compound,measurement,setting,value
CC[C@H](C)[C@H](NC(=O)CNC(=O)[C@H](CCCCN)NC(=O)[C@H](CC(N)=O)NC(=O)[C@@H](NC(=O)[C@H](C)NC(=O)[C@H](C)NC(=O)[C@@H](NC(=O)[C@H](CC(C)C)NC(=O)[C@H](CC(=O)O)NC(=O)[C@H](CC(=O)O)NC(=O)[C@H](C)N)[C@@H](C)O)[C@@H](C)CC)C(=O)N[C@@H](CC(C)C)C(=O)N[C@H](C(=O)N[C@H](C(=O)O)[C@@H](C)O)C(C)C [Env337–351],Level of peptide promiscuity,[1],intermediate (key: low (affinity to 2 to 5 HLA class II molecules bound); intermediate (affinity to 6 to 9 HLA class II molecules bound); highly promiscuous (binding to ≥10 HLA molecules))
same,Total DR bound,[1],9
same,ELISPOT Max,[2],30 SFC/10^6 PBMC
same,ELISPOT Min,[2],12 SFC/10^6 PBMC
same,No. of responders,[2],3
same,Recognition frequency (%) (Table S1),[2],17%
CC[C@H](C)[C@H](NC(=O)CNC(=O)[C@H](CCCCN)NC(=O)[C@@H](N)CC(N)=O)C(=O)N[C@@H](CC(C)C)C(=O)N[C@H](C(=O)N[C@H](C(=O)N[C@H](C(=O)N[C@@H](CC(N)=O)C(=O)N1CCC[C@H]1C(=O)N[C@H](C(=O)N[C@@H](C)C(=O)N[C@@H](CO)C(=O)N[C@H](C(=O)N[C@@H](CC(N)=O)C(=O)O)[C@@H](C)O)[C@@H](C)CC)C(C)C)[C@@H](C)O)C(C)C [Env345–359],Level of peptide promiscuity,[1],highly promiscuous (key: low (affinity to 2 to 5 HLA class II molecules bound); intermediate (affinity to 6 to 9 HLA class II molecules bound); highly promiscuous (binding to ≥10 HLA molecules))
same,Total DR bound,[1],13
same,ELISPOT Max,[2],271 SFC/10^6 PBMC
same,ELISPOT Min,[2],10 SFC/10^6 PBMC
same,No. of responders,[2],9
same,Recognition frequency (%) (Table S1),[2],33%
same,IFN-γ SFC Average ± STDEV,[3],315±160 SFC (CD4-depleted PBMCs/10^6)
same,IFN-γ SFC Median,[3],287 SFC (CD4-depleted PBMCs/10^6)
same,No. of responders (CD4-depleted PBMCs),[3],3
CC[C@H](C)[C@H](NC(=O)[C@H](CC(C)C)NC(=O)[C@@H](NC(=O)[C@H](CCC(=O)O)NC(=O)[C@@H](N)CC(=O)O)C(C)C)C(=O)N[C@@H](CCC(=O)O)C(=O)N[C@H](C(=O)N[C@@H](CC(N)=O)C(=O)N1CCC[C@H]1C(=O)N1CCC[C@H]1C(=O)N[C@@H](Cc1ccccc1)C(=O)NCC(=O)N[C@@H](CC(=O)O)C(=O)N[C@@H](CO)C(=O)N[C@@H](Cc1ccc(O)cc1)C(=O)O)C(C)C [Env361–375],Total DR bound,[1],10
same,ELISPOT Max,[2],203 SFC/10^6 PBMC
same,ELISPOT Min,[2],14 SFC/10^6 PBMC
same,No. of responders,[2],4
same,Recognition frequency (%) (Table S1),[2],15%
same,IFN-γ SFC Average ± STDEV,[3],16±0 SFC (CD4-depleted PBMCs/10^6)
same,IFN-γ SFC Median,[3],16 SFC (CD4-depleted PBMCs/10^6)
same,No. of responders (CD4-depleted PBMCs),[3],2
CSCC[C@H](NC(=O)[C@@H](NC(=O)[C@@H](N)C(C)C)C(C)C)C(=O)N[C@H](C(=O)N[C@@H](CO)C(=O)N[C@@H](CC(C)C)C(=O)N[C@@H](C)C(=O)N[C@@H](CC(C)C)C(=O)N[C@H](C(=O)NCC(=O)N[C@@H](C)C(=O)N[C@@H](C)C(=O)N[C@@H](CC(C)C)C(=O)N[C@@H](Cc1c[nH]cn1)C(=O)N1CCC[C@H]1C(=O)O)C(C)C)[C@@H](C)O [NS2b97–111],Level of peptide promiscuity,[1],intermediate (key: low (affinity to 2 to 5 HLA class II molecules bound); intermediate (affinity to 6 to 9 HLA class II molecules bound); highly promiscuous (binding to ≥10 HLA molecules))
same,Total DR bound,[1],7
same,ELISPOT Max,[2],26 SFC/10^6 PBMC
same,ELISPOT Min,[2],10 SFC/10^6 PBMC
same,No. of responders,[2],6
same,Recognition frequency (%) (Table S1),[2],10%
CC[C@H](C)[C@H](NC(=O)[C@@H](NC(=O)[C@H](CCC(=O)O)NC(=O)CNC(=O)[C@H](CC(N)=O)NC(=O)[C@H](CCCNC(=N)N)NC(=O)[C@H](CC(N)=O)NC(=O)[C@@H](NC(=O)[C@@H](NC(=O)[C@@H]1CCCN1C(=O)[C@H](CO)NC(=O)CNC(=O)[C@H](CO)NC(=O)[C@@H](NC(=O)CN)[C@@H](C)O)[C@@H](C)CC)C(C)C)C(C)C)C(=O)O [NS3_137–151],Total DR bound,[1],1
same,ELISPOT Max,[2],137 SFC/10^6 PBMC
same,ELISPOT Min,[2],18 SFC/10^6 PBMC
same,No. of responders,[2],5
same,Recognition frequency (%) (Table S1),[2],11%
same,No. of responders (CD4-depleted PBMCs),[3],0
CSCC[C@H](NC(=O)[C@H](C)NC(=O)[C@H](CCSC)NC(=O)[C@@H](N)CCCNC(=N)N)C(=O)N[C@H](C(=O)N[C@@H](CC(=O)O)C(=O)N[C@H](C(=O)N[C@H](C(=O)N1CCC[C@H]1C(=O)N[C@@H](Cc1ccccc1)C(=O)NCC(=O)N[C@@H](CCC(N)=O)C(=O)N[C@@H](CCC(N)=O)C(=O)N[C@@H](CCCNC(=N)N)C(=O)N[C@H](C(=O)O)C(C)C)[C@@H](C)O)[C@@H](C)O)[C@@H](C)O [NS5_341–355],Level of peptide promiscuity,[1],low (key: low (affinity to 2 to 5 HLA class II molecules bound); intermediate (affinity to 6 to 9 HLA class II molecules bound); highly promiscuous (binding to ≥10 HLA molecules))
same,Total DR bound,[1],4
same,ELISPOT Max,[2],267 SFC/10^6 PBMC
same,ELISPOT Min,[2],27 SFC/10^6 PBMC
same,No. of responders,[2],6
same,Recognition frequency (%) (Table S1),[2],12%
same,No. of responders (CD4-depleted PBMCs),[3],0
CC(C)[C@H](NC(=O)[C@H](CCCNC(=N)N)NC(=O)[C@H](CCC(N)=O)NC(=O)[C@H](CCC(N)=O)NC(=O)CNC(=O)[C@H](Cc1ccccc1)NC(=O)[C@@H]1CCCN1C(=O)[C@@H](NC(=O)[C@@H](NC(=O)[C@H](CC(=O)O)NC(=O)[C@@H](N)[C@@H](C)O)[C@@H](C)O)[C@@H](C)O)C(=O)N[C@@H](Cc1ccccc1)C(=O)N[C@@H](CCCCN)C(=O)N[C@@H](CCC(=O)O)C(=O)N[C@@H](CCCCN)C(=O)O [NS5_345–359],Level of peptide promiscuity,[1],low (key: low (affinity to 2 to 5 HLA class II molecules bound); intermediate (affinity to 6 to 9 HLA class II molecules bound); highly promiscuous (binding to ≥10 HLA molecules))
same,Total DR bound,[1],2
same,ELISPOT Max,[2],914 SFC/10^6 PBMC
same,ELISPOT Min,[2],55 SFC/10^6 PBMC
same,No. of responders,[2],8
same,Recognition frequency (%) (Table S1),[2],17%
same,IFN-γ SFC Average ± STDEV,[3],66±71 SFC (CD4-depleted PBMCs/10^6)
same,IFN-γ SFC Median,[3],32 SFC (CD4-depleted PBMCs/10^6)
same,No. of responders (CD4-depleted PBMCs),[3],3
CC[C@H](C)[C@H](NC(=O)[C@H](C)NC(=O)[C@H](CCCNC(=N)N)NC(=O)[C@H](CO)NC(=O)CNC(=O)[C@H](CCCCN)NC(=O)[C@H](C)NC(=O)[C@H](CCCCN)NC(=O)CNC(=O)[C@H](Cc1ccccc1)NC(=O)[C@@H](N)CCC(=O)O)C(=O)N[C@@H](Cc1c[nH]c2ccccc12)C(=O)N[C@@H](Cc1ccc(O)cc1)C(=O)N[C@@H](CCSC)C(=O)N[C@@H](Cc1c[nH]c2ccccc12)C(=O)O [NS5_465–479],Level of peptide promiscuity,[1],intermediate (key: low (affinity to 2 to 5 HLA class II molecules bound); intermediate (affinity to 6 to 9 HLA class II molecules bound); highly promiscuous (binding to ≥10 HLA molecules))
same,Total DR bound,[1],7
same,ELISPOT Max,[2],1593 SFC/10^6 PBMC
same,ELISPOT Min,[2],10 SFC/10^6 PBMC
same,No. of responders,[2],6
same,Recognition frequency (%) (Table S1),[2],12%
same,IFN-γ SFC Average ± STDEV,[3],168±0 SFC (CD4-depleted PBMCs/10^6)
same,IFN-γ SFC Median,[3],168 SFC (CD4-depleted PBMCs/10^6)
same,No. of responders (CD4-depleted PBMCs),[3],2
CC[C@H](C)[C@H](NC(=O)[C@H](C)NC(=O)[C@H](CCCNC(=N)N)NC(=O)[C@H](CO)NC(=O)CNC(=O)[C@H](CCCCN)NC(=O)[C@H](C)N)C(=O)N[C@@H](Cc1c[nH]c2ccccc12)C(=O)N[C@@H](Cc1ccc(O)cc1)C(=O)N[C@@H](CCSC)C(=O)N[C@@H](Cc1c[nH]c2ccccc12)C(=O)N[C@@H](CC(C)C)C(=O)NCC(=O)N[C@@H](C)C(=O)N[C@@H](CCCNC(=N)N)C(=O)O [NS5_469–483],Level of peptide promiscuity,[1],highly promiscuous (key: low (affinity to 2 to 5 HLA class II molecules bound); intermediate (affinity to 6 to 9 HLA class II molecules bound); highly promiscuous (binding to ≥10 HLA molecules))
same,Total DR bound,[1],10
same,ELISPOT Max,[2],1828 SFC/10^6 PBMC
same,ELISPOT Min,[2],13 SFC/10^6 PBMC
same,No. of responders,[2],8
same,Recognition frequency (%) (Table S1),[2],17%
CC(C)C[C@H](NC(=O)[C@H](C)NC(=O)[C@H](CCC(=O)O)NC(=O)[C@H](Cc1ccccc1)NC(=O)[C@H](CCC(=O)O)NC(=O)[C@H](CC(C)C)NC(=O)[C@H](Cc1ccc(O)cc1)NC(=O)[C@H](CCCNC(=N)N)NC(=O)[C@H](C)NC(=O)CN)C(=O)NCC(=O)N[C@@H](Cc1ccccc1)C(=O)N[C@@H](CC(C)C)C(=O)N[C@@H](CC(N)=O)C(=O)N[C@@H](CCC(=O)O)C(=O)O [NS5_481–495],Level of peptide promiscuity,[1],highly promiscuous (key: low (affinity to 2 to 5 HLA class II molecules bound); intermediate (affinity to 6 to 9 HLA class II molecules bound); highly promiscuous (binding to ≥10 HLA molecules))
same,Total DR bound,[1],10
same,ELISPOT Max,[2],1022 SFC/10^6 PBMC
same,ELISPOT Min,[2],13 SFC/10^6 PBMC
same,No. of responders,[2],11
same,Recognition frequency (%) (Table S1),[2],23%
same,IFN-γ SFC Average ± STDEV,[3],95±0 SFC (CD4-depleted PBMCs/10^6)
same,IFN-γ SFC Median,[3],95 SFC (CD4-depleted PBMCs/10^6)
same,No. of responders (CD4-depleted PBMCs),[3],2
LWNGPMAVS [NS4b77–85],yield of cellular proliferation of the CD8^+ T-cell population expanded by aAPCs,[4],2×10^6
same,T-cell activation by 9-mers covering NS4b77–91,[2],induced the most T-cell activation
